Literature values, collected in patent US10206934B2, “Implants and methods for treating inflammation-mediated conditions of the eye” (Allergan, Inc., priority 2000, dated 2019).

Settings: fold less potent; 25 mg equivalent to 1 mg dexamethasone

C[C@]12CCC(=O)C=C1CC[C@@H]1[C@@H]2[C@@H](O)C[C@@]2(C)[C@H]1CC[C@]2(O)C(=O)CO [hydrocortisone]
Potency relative to dexamethasone: approximately twentyfivefold
